Test results: patent publication US5428182A, “Bile acid derivatives, process for their preparation and use of these compounds as pharmaceuticals” (Hoechst Aktiengesellschaft, priority 1992, dated 1995)

Target: T1, Na^+ -dependent bile acid transport system (Oryctolagus cuniculus, UniProt Q28727)
T1 construct: Brush border membrane vesicles from the intestinal cells of the small intestine were prepared by the so-called Mg^2+ precipitation method; from tissue; host or cells: terminal ileum (terminal 7/10 of small intestine) of male New Zealand rabbits, brush border membrane vesicles
T1 sequence (Q28727 1-347): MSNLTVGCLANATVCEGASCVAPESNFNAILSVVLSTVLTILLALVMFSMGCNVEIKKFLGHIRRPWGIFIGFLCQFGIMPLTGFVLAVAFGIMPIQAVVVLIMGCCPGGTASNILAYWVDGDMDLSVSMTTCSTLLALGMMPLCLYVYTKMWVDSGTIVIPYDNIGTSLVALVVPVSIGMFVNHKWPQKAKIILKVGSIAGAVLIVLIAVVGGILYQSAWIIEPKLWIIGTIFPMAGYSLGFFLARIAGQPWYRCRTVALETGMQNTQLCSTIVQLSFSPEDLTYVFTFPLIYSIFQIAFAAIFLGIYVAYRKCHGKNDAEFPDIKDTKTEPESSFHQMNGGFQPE
Experiment: inhibition of Na+-dependent [3H]-taurocholate absorption in brush border membrane vesicles of rabbit ileum (membrane filtration technique)
Assay type: biochemical
Conditions: 50 μM taurocholate, customarily 1 minute, pH 7.4; for IC50Na (TCDC) / IC50Na (Substance): quotient of IC50Na of the standard TCDC and of the substance, Na+-dependent transport (difference Na-T-B minus K-T-B); for IC50 (TCDC) / IC50 (Substance): quotient of IC50 of the standard taurochenodeoxycholate (TCDC) and of the substance
Procedure: The biological testing of the compounds according to the invention was carried out by determining the inhibition of [^3 H]-taurocholate absorption in brush border membrane vesicles of the rabbit ileum. The inhibition test was carried out as follows:
Brush border membrane vesicles from the intestinal cells of the small intestine were prepared by the so-called Mg^2+ precipitation method. Male New Zealand rabbits (2 to 2.5 kg body weight) were sacrificed by intravenous injection of 0.5 ml of an aqueous solution of 2.5 mg of tetracaine HCl, 100 T 61® and 25 mg of mebezonium iodide. The small intestine was removed and rinsed with ice-cold physiological saline solution. The terminal 7/10 of the small intestine (measured in the oral-rectal direction, i.e. the terminal ileum, which contains the active Na^+ -dependent bile acid transport system) were used for the preparation of the brush border membrane vesicles. The intestines were frozen under nitrogen at -80° C. in plastic bags. For the preparation of the membrane vesicles, the frozen intestines were thawed at 30° C. in a water bath. The mucosa was scraped off and suspended in 60 ml of ice-cold 12 mM tris/HCl buffer (pH 7.1)/300 mM mannitol, 5 mM EGTA/ 10 mg/l of phenylmethylsulfonyl fluoride/l mg/l of trypsin inhibitor from soybeans (32 U/mg)/0.5 mg/l of trypsin inhibitor from bovine lung (193 U/mg)/5 mg/l of bacitracin. After dilution to 300 ml with ice-cold distilled water, the suspension was homogenized using an Ultraturrax (18-rod, IKAWerk Staufen, FRG) for 3 minutes at 75% maximum power with ice-cooling. After addition of 3 ml of 1M MgCl2 solution (final concentration 10 mM), the homogenate was allowed to stand at 0° C. for exactly 1 minute. As a result of addition of Mg^2+, the cell membranes aggregate and precipitate with the exception of the brush border membranes. After centrifugation at 3000×g for 15 minutes (5000 rpm, SS-34 rotor), the precipitate is discarded and the supernatant which contains the brush border membranes is centrifuged at […] for 30 minutes (15,000 rpm, SS-34 rotor). The supernatant was discarded and the precipitate was rehomogenized in 60 ml of 12 mM tris/HCl buffer (pH 7.1)/60 mM mannitol/5 mM EGTA using a Potter Elvejhem homogenizer (Braun Melsungen, 900 rpm, 10 strokes). After addition of 0.1 ml of 1M MgCl2 solution and an incubation time of 15 minutes at 0° C., centrifugation was once more carried out at 3000×g for 15 minutes. The supernatant was then centrifuged again at 46,000×g (15,000 rpm, SS-34 rotor) for 30 minutes. The precipitate was taken up in 30 ml of 10 mM tris/hepes buffer (pH 7.4)/300 mM mannitol and homogeneously resuspended at 1000 rpm by 20 strokes in a Potter Elvejhem homogenizer. After centrifugation at 48,000×g (20,000 rpm, SS-34 rotor) for 30 minutes, the precipitate was taken up in 0.5 to 2 ml of tris/HEPES buffer (pH 7.4)/280mM mannitol (final concentration 20 mg/ml) and resuspended with the aid of a tuberculin syringe having a 27 gauge needle. The vesicles were either used immediately after preparation for transport investigations or stored in liquid nitrogen at -196° C. in 4 mg portions.
The absorption of substrates in the brush border membrane vesicles described above was determined by means of the so-called membrane filtration technique. 10 μl of the vesicle suspension (100 μg of protein) were pipetted as drops onto the wall of a polystyrene incubation tube (11×70 mm) which contained the incubation medium with the appropriate ligands (90 μl). The incubation medium contained 0.75 μl=0.75 μCi of [^3 H(G)]-taurocholate (specific activity: 2.1 Ci/mMol)/0.5 μl of 10 mM taurocholate/8.75 μl of sodium transport buffer (10 mM tris/HEPES (pH 7.4)/100 mM mannitol/100 mM NaCl) (Na-T-B) or 8.75 μl of potassium transport buffer (10 mM tris/hepes (pH 7.4)/100 mM mannitol/100 mM KCl) (K-T-B) and 80 μl of the inhibitor solution concerned, depending on the experiment, dissolved in Na-T buffer or K-T buffer. […]

SMILES	IC50Na (TCDC) / IC50Na (Substance)	IC50 (TCDC) / IC50 (Substance)
C[C@H](CCC(=O)O)[C@H]1CC[C@H]2[C@@H]3[C@H](O)C[C@@H]4C[C@@H](OCCNC(=O)CCC(CCC(=O)NCCO[C@H]5CC[C@@]6(C)[C@@H](C5)C[C@@H](O)[C@@H]5[C@@H]6C[C@H](O)[C@]6(C)[C@@H]([C@H](C)CCC(=O)O)CC[C@@H]56)(CCC(=O)NCCO[C@H]5CC[C@@]6(C)[C@@H](C5)C[C@@H](O)[C@@H]5[C@@H]6C[C@H](O)[C@]6(C)[C@@H]([C@H](C)CCC(=O)O)CC[C@@H]56)[N+](=O)[O-])CC[C@]4(C)[C@H]3C[C@H](O)[C@]12C [Example 7]	0.34	0.29
C[C@H](CCC(=O)O)[C@H]1CC[C@H]2[C@@H]3[C@H](O)C[C@@H]4C[C@@H](OCCNC(=O)CCOCC(C)(COCCC(=O)NCCO[C@H]5CC[C@@]6(C)[C@@H](C5)C[C@@H](O)[C@@H]5[C@@H]6C[C@H](O)[C@]6(C)[C@@H]([C@H](C)CCC(=O)O)CC[C@@H]56)COCCC(=O)NCCO[C@H]5CC[C@@]6(C)[C@@H](C5)C[C@@H](O)[C@@H]5[C@@H]6C[C@H](O)[C@]6(C)[C@@H]([C@H](C)CCC(=O)O)CC[C@@H]56)CC[C@]4(C)[C@H]3C[C@H](O)[C@]12C [Example 10]	0.26	0.24
C[C@H](CCC(=O)O)[C@H]1CC[C@H]2[C@@H]3[C@H](O)C[C@@H]4C[C@@H](NC(=O)CCOCCCOCC(C)(COCCCOCCC(=O)N[C@H]5CC[C@@]6(C)[C@@H](C5)C[C@@H](O)[C@@H]5[C@@H]6C[C@H](O)[C@]6(C)[C@@H]([C@H](C)CCC(=O)O)CC[C@@H]56)COCCCOCCC(=O)N[C@H]5CC[C@@]6(C)[C@@H](C5)C[C@@H](O)[C@@H]5[C@@H]6C[C@H](O)[C@]6(C)[C@@H]([C@H](C)CCC(=O)O)CC[C@@H]56)CC[C@]4(C)[C@H]3C[C@H](O)[C@]12C [Example 11]	0.36	0.29
C[C@H](CCC(=O)O)[C@H]1CC[C@H]2[C@@H]3[C@H](O)C[C@@H]4C[C@@H](OCCCCCCNC(=O)[C@]5(C)C[C@](C)(C(=O)NCCCCCCO[C@H]6CC[C@@]7(C)[C@@H](C6)C[C@@H](O)[C@@H]6[C@@H]7C[C@H](O)[C@]7(C)[C@@H]([C@H](C)CCC(=O)O)CC[C@@H]67)C[C@](C)(C(=O)NCCCCCCO[C@H]6CC[C@@]7(C)[C@@H](C6)C[C@@H](O)[C@@H]6[C@@H]7C[C@H](O)[C@]7(C)[C@@H]([C@H](C)CCC(=O)O)CC[C@@H]67)C5)CC[C@]4(C)[C@H]3C[C@H](O)[C@]12C [Example 16]	0.31	0.37
C[C@H](CCC(=O)O)[C@H]1CC[C@H]2[C@@H]3[C@H](O)C[C@@H]4C[C@H](CCNC(=O)c5cc(C(=O)NCC[C@@H]6CC[C@@]7(C)[C@@H](C6)C[C@@H](O)[C@@H]6[C@@H]7C[C@H](O)[C@]7(C)[C@@H]([C@H](C)CCC(=O)O)CC[C@@H]67)cc(C(=O)NCC[C@@H]6CC[C@@]7(C)[C@@H](C6)C[C@@H](O)[C@@H]6[C@@H]7C[C@H](O)[C@]7(C)[C@@H]([C@H](C)CCC(=O)O)CC[C@@H]67)c5)CC[C@]4(C)[C@H]3C[C@H](O)[C@]12C [Example 18]	0.76	0.85
C[C@H](CCC(=O)O)[C@H]1CC[C@H]2[C@@H]3[C@H](O)C[C@@H]4C[C@@H](OCCCCCNC(=O)c5cc(C(=O)NCCCCCO[C@H]6CC[C@@]7(C)[C@@H](C6)C[C@@H](O)[C@@H]6[C@@H]7C[C@H](O)[C@]7(C)[C@@H]([C@H](C)CCC(=O)O)CC[C@@H]67)cc(C(=O)NCCCCCO[C@H]6CC[C@@]7(C)[C@@H](C6)C[C@@H](O)[C@@H]6[C@@H]7C[C@H](O)[C@]7(C)[C@@H]([C@H](C)CCC(=O)O)CC[C@@H]67)c5)CC[C@]4(C)[C@H]3C[C@H](O)[C@]12C [Example 20]	0.86	0.43
C[C@H](CCC(=O)O)[C@H]1CC[C@H]2[C@@H]3[C@H](O)C[C@@H]4C[C@@H](OCCCCCCNC(=O)c5cc(C(=O)NCCCCCCO[C@H]6CC[C@@]7(C)[C@@H](C6)C[C@@H](O)[C@@H]6[C@@H]7C[C@H](O)[C@]7(C)[C@@H]([C@H](C)CCC(=O)O)CC[C@@H]67)cc(C(=O)NCCCCCCO[C@H]6CC[C@@]7(C)[C@@H](C6)C[C@@H](O)[C@@H]6[C@@H]7C[C@H](O)[C@]7(C)[C@@H]([C@H](C)CCC(=O)O)CC[C@@H]67)c5)CC[C@]4(C)[C@H]3C[C@H](O)[C@]12C [Example 21]	0.59	0.29
C[C@H](CCC(=O)O)[C@H]1CC[C@H]2[C@@H]3[C@H](O)C[C@@H]4C[C@@H](OCCCCCNC(=O)[C@]5(C)C[C@](C)(C(=O)NCCCCCO[C@H]6CC[C@@]7(C)[C@@H](C6)C[C@@H](O)[C@@H]6[C@@H]7C[C@H](O)[C@]7(C)[C@@H]([C@H](C)CCC(=O)O)CC[C@@H]67)C[C@](C)(C(=O)NCCCCCO[C@H]6CC[C@@]7(C)[C@@H](C6)C[C@@H](O)[C@@H]6[C@@H]7C[C@H](O)[C@]7(C)[C@@H]([C@H](C)CCC(=O)O)CC[C@@H]67)C5)CC[C@]4(C)[C@H]3C[C@H](O)[C@]12C [Example 31]	0.93	1.26
C[C@H](CCC(=O)O)[C@H]1CC[C@H]2[C@@H]3[C@H](O)C[C@@H]4C[C@@H](NC(=O)[C@]5(C)C[C@](C)(C(=O)N[C@H]6CC[C@@]7(C)[C@@H](C6)C[C@@H](O)[C@@H]6[C@@H]7C[C@H](O)[C@]7(C)[C@@H]([C@H](C)CCC(=O)O)CC[C@@H]67)C[C@](C)(C(=O)N[C@H]6CC[C@@]7(C)[C@@H](C6)C[C@@H](O)[C@@H]6[C@@H]7C[C@H](O)[C@]7(C)[C@@H]([C@H](C)CCC(=O)O)CC[C@@H]67)C5)CC[C@]4(C)[C@H]3C[C@H](O)[C@]12C [Example 33]	1.04	0.77
CC(CCC(=O)O)C1CCC2C3C(O)CC4CC(OCCNC(=O)C5C(C(=O)NCCOC6CCC7(C)C(C6)CC(O)C6C7CC(O)C7(C)C(C(C)CCC(=O)O)CCC67)C(c6ccccc6)C5C(=O)NCCOC5CCC6(C)C(C5)CC(O)C5C6CC(O)C6(C)C(C(C)CCC(=O)O)CCC56)CCC4(C)C3CC(O)C12C (stereo not shown) [Example 45]	0.23	0.32
CC(CCC(=O)O)C1CCC2C3C(O)CC4CC(OCCNC(=O)C5C(C(=O)NCCOC6CCC7(C)C(C6)CC(O)C6C7CC(O)C7(C)C(C(C)CCC(=O)O)CCC67)C(C(=O)NCCOC6CCC7(C)C(C6)CC(O)C6C7CC(O)C7(C)C(C(C)CCC(=O)O)CCC67)C5C(=O)NCCOC5CCC6(C)C(C5)CC(O)C5C6CC(O)C6(C)C(C(C)CCC(=O)O)CCC56)CCC4(C)C3CC(O)C12C (stereo not shown) [Example 47]	0.23	0.24
